Biological target: T1, recombinant Vps34 (Homo sapiens, UniProt Q8NEB9)
T1 construct: purchased Invitrogen PV5126
Experiment: Phosphorylation of phosphatidylinositol (PI) by Vps34 in vitro, ADP detected by TR-FRET (HTRF Transcreener ADP)
Format: biochemical
Conditions: 10 μM ATP, 55 μg/ml PI, approximately 3 nM Vps34, 1 hour at ambient temperature; absolute IC50, mean of two independent experiments; read-out: IC50 activity range

T1 sequence (Q8NEB9 whole entry): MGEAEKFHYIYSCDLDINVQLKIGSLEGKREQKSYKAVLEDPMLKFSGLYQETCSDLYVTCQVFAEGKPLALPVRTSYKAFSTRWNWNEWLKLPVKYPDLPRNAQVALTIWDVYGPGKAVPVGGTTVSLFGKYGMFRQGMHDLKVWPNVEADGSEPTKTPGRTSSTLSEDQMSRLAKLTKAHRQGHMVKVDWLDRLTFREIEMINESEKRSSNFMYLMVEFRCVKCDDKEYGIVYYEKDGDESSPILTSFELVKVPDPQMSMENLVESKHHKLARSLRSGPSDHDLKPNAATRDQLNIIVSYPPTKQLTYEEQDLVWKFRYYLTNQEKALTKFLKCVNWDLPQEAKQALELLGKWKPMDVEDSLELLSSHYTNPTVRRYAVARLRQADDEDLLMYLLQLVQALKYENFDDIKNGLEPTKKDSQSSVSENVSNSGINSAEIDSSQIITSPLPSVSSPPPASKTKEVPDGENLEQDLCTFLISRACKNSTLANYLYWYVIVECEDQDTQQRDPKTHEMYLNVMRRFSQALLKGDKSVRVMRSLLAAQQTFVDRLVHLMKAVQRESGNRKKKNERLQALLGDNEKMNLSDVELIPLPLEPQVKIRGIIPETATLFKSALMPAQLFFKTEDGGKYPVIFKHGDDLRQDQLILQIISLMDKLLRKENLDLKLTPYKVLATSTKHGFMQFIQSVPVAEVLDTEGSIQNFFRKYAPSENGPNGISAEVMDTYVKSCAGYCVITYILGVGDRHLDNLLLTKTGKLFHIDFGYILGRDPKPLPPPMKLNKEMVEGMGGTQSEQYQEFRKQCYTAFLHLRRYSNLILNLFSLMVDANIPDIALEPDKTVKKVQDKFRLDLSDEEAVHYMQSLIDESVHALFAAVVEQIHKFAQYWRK

| Compound | IC50 |
| --- | --- |
| C[C@@H]1COCCN1c1cc(=O)n2c(n1)N(CC1CCCO1)[C@H](C(F)(F)F)CC2 (single isomer, unassigned) [Example 136] | < 10 nM |
| C[C@@H]1COCCN1c1cc(=O)n2c(n1)N(CC1CCCCO1)[C@H](C(F)(F)F)CC2 (single isomer, unassigned) [Example 138] | < 10 nM |
| CCC1CN(c2cc(=O)n3c(n2)N(CC(=O)c2ccccn2)[C@H](C(F)(F)F)CC3)CCO1 (single isomer, unassigned) [Example 172] | > 100 nM |
| CC1CN(c2cc(=O)n3c(n2)N(CC(=O)c2ccccn2)[C@H](C(F)(F)F)CC3)CCO1 (single isomer, unassigned) [Example 174] | 10 to 100 nM |
| CC1CN(c2cc(=O)n3c(n2)N(CC(=O)c2ccccn2)[C@H](C(F)(F)F)CC3)CCO1 (single isomer, unassigned) [Example 175] | > 100 nM |
| O=c1cc(N2CCOCC2CO)nc2n1CC[C@@H](C(F)(F)F)N2c1cc(F)cc(F)c1 (single isomer, unassigned) [Example 176] | > 100 nM |
| O=c1cc(N2CCOCC2CO)nc2n1CC[C@@H](C(F)(F)F)N2Cc1ccc(Cl)s1 (single isomer, unassigned) [Example 177] | 10 to 100 nM |
| CC1CN(c2cc(=O)n3c(n2)N(Cc2ccccc2)[C@H](C(F)(F)F)CC3)CCO1 (single isomer, unassigned) [Example 191] | 10 to 100 nM |
| O=c1cc(N2CCOC(CF)C2)nc2n1CC[C@@H](C(F)(F)F)N2Cc1ccccc1 (single isomer, unassigned) [Example 194] | > 100 nM |
| C[C@@H]1COCCN1c1cc(=O)n2c(n1)N(CC(O)c1cccnc1)[C@H](C(F)(F)F)CC2 (single isomer, unassigned) [Example 209] | < 10 nM |
| C[C@@H]1COCCN1c1cc(=O)n2c(n1)N(CC(O)c1ccccn1)[C@H](C(F)(F)F)CC2 (single isomer, unassigned) [Example 212] | < 10 nM |
| CCC(C)N1c2nc(N3CCOC[C@H]3C)cc(=O)n2CC[C@H]1C(F)(F)F (single isomer, unassigned) [Example 284] | < 10 nM |
| COC(CN1c2nc(N3CCOC[C@H]3C)cc(=O)n2CC[C@H]1C(F)(F)F)C(C)C (single isomer, unassigned) [Example 288] | < 10 nM |
| C[C@@H]1COCCN1c1cc(=O)n2c(n1)N(C/C(=N\O)C1CC1)[C@H](C(F)(F)F)CC2 (single isomer, unassigned) [Example 304] | < 10 nM |
| C[C@@H]1COCCN1c1cc(=O)n2c(n1)N(C/C(=N/O)C1CC1)[C@H](C(F)(F)F)CC2 (single isomer, unassigned) [Example 305] | < 10 nM |
| CO/N=C(/CN1c2nc(N3CCOC[C@H]3C)cc(=O)n2CC[C@H]1C(F)(F)F)C1CC1 (single isomer, unassigned) [Example 306] | < 10 nM |
| CO/N=C(\CN1c2nc(N3CCOC[C@H]3C)cc(=O)n2CC[C@H]1C(F)(F)F)C1CC1 (single isomer, unassigned) [Example 307] | < 10 nM |
| C[C@@H]1COCCN1c1cc(=O)n2c(n1)N(CC1(C3CC3)CCO1)[C@H](C(F)(F)F)CC2 (single isomer, unassigned) [Example 308] | < 10 nM |
| CC1CN(c2nc3n(c(=O)c2F)CC[C@@H](C(F)(F)F)N3CC(=O)C2CC2)CCO1 (single isomer, unassigned) [Example 322] | 10 to 100 nM |
| CC(C)C(F)CN1c2nc(N3CCOC[C@H]3C)cc(=O)n2CC[C@H]1C(F)(F)F (single isomer, unassigned) [Example 323] | < 10 nM |

| Compound | IC50 |
| --- | --- |
| C[C@@H]1COCCN1c1cc(=O)n2c(n1)N(CC(F)C1CC1)[C@H](C(F)(F)F)CC2 (single isomer, unassigned) [Example 325] | < 10 nM |
| CC(C)C(F)CN1c2nc(N3CCOC[C@H]3C)c(F)c(=O)n2CC[C@H]1C(F)(F)F (single isomer, unassigned) [Example 328] | < 10 nM |
| C[C@@H]1COCCN1c1nc2n(c(=O)c1F)CC[C@@H](C(F)(F)F)N2CC(F)C1CC1 (single isomer, unassigned) [Example 331] | < 10 nM |
| CC1COCC(C)N1c1cc(=O)n2c(n1)N(Cc1ccc(Cl)s1)[C@H](C(F)(F)F)CC2 (stereo in doubt) [Example 152, (S)-9-(5-Chloro-thiophen-2-ylmethyl)-2-((3S,5S)-3,5-dimethylmorpholin-4-yl)-8-trifluoromethyl-6,7,8,9-tetrahydro-pyrimido[1,2-a]-pyrimidin-4-one] | < 10 nM |
| CC1COCC(C)N1c1cc(=O)n2c(n1)N(CC(=O)c1ccccc1)[C@H](C(F)(F)F)CC2 (stereo in doubt) [Example 153, (S)-2-((3S,5S)-3,5-Dimethylmorpholin-4-yl)-9-(2-oxo-2-phenyl-ethyl)-8-trifluoromethyl-6,7,8,9-tetrahydro-pyrimido[1,2-a]-pyrimidin-4-one] | < 10 nM |
| C[C@@H]1COCCN1c1cc(=O)n2c(n1)N(CC(=O)c1ccccn1)[C@H](C(F)(F)F)CC2 [Example 1, (S)-2-((R)-3-Methyl-morpholin-4-yl)-9-(2-oxo-2-pyridin-2-yl-ethyl)-8-trifluoromethyl-6,7,8,9-tetrahydro-pyrimido[1,2-a]-pyrimidin-4-one] | < 10 nM |
| Cc1nc(CN2c3nc(N4CCOC[C@H]4C)cc(=O)n3CC[C@H]2C(F)(F)F)no1 [Example 2, (S)-2-((R)-3-Methyl-morpholin-4-yl)-9-(5-methyl-[1,2,4]oxadiazol-3-yl-methyl)-8-trifluoromethyl-6,7,8,9-tetrahydro-pyrimido[1,2-a]-pyrimidin-4-one] | < 10 nM |
| CC(C)C(=O)CN1c2nc(N3CCOC[C@H]3C)c(F)c(=O)n2CC[C@H]1C(F)(F)F [Example 4, (S)-3-Fluoro-2-((R)-3-methylmorpholin-4-yl)-9-(3-methyl-2-oxo-butyl)-8-trifluoromethyl-6,7,8,9-tetrahydro-pyrimido[1,2-a]-pyrimidin-4-one] | < 10 nM |
| C[C@@H]1COCCN1c1nc2n(c(=O)c1F)CC[C@@H](C(F)(F)F)N2Cc1ccnc(F)c1 [Example 5, (S)-3-Fluoro-9-(2-fluoropyridin-4-yl-methyl)-2-((R)-3-methylmorpholin-4-yl)-8-trifluoromethyl-6,7,8,9-tetrahydro-pyrimido[1,2-a]-pyrimidin-4-one] | < 10 nM |
| C[C@@H]1COCCN1c1nc2n(c(=O)c1F)CC[C@@H](C(F)(F)F)N2CC(=O)C1CC1 [Example 6, (S)-9-(2-Cyclopropyl-2-oxoethyl)-3-fluoro-2-((R)-3-methyl-morpholin-4-yl)-8-trifluoromethyl-6,7,8,9-tetrahydro-pyrimido[1,2-a]-pyrimidin-4-one] | < 10 nM |
| CC(=O)CN1c2nc(N3CCOC[C@H]3C)c(F)c(=O)n2CC[C@H]1C(F)(F)F [Example 7, (S)-3-Fluoro-2-((R)-3-methylmorpholin-4-yl)-9-(2-oxopropyl)-8-trifluoromethyl-6,7,8,9-tetrahydro-pyrimido[1,2-a]-pyrimidin-4-one] | < 10 nM |
| C[C@H](O)CN1c2nc(N3CCOC[C@H]3C)c(F)c(=O)n2CC[C@H]1C(F)(F)F [Example 8, (S)-3-Fluoro-9-((S)-2-hydroxypropyl)-2-((R)-3-methylmorpholin-4-yl)-8-trifluoromethyl-6,7,8,9-tetrahydro-pyrimido[1,2-a]-pyrimidin-4-one] | < 10 nM |
| C[C@@H]1COC[C@@H](C)N1c1cc(=O)n2c(n1)N(Cc1ccno1)[C@H](C(F)(F)F)CC2 [Example 9, (S)-2-((3R,5R)-3,5-Dimethylmorpholin-4-yl)-9-isoxazol-5-yl-methyl-8-trifluoromethyl-6,7,8,9-tetrahydro-pyrimido[1,2-a]-pyrimidin-4-one] | < 10 nM |
| C[C@@H]1COCCN1c1cc(=O)n2c(n1)N(CC(=O)c1ccnc(Cl)c1)[C@H](C(F)(F)F)CC2 [Example 10, (S)-9-[2-(2-Chloro-pyridin-4-yl)-2-oxo-ethyl]-2-((R)-3-methyl-morpholin-4-yl)-8-trifluoromethyl-6,7,8,9-tetrahydro-pyrimido[1,2-a]-pyrimidin-4-one] | < 10 nM |
| C[C@@H]1COCCN1c1cc(=O)n2c(n1)N(CC(=O)c1cccnc1)[C@H](C(F)(F)F)CC2 [Example 11, (S)-2-((R)-3-Methyl-morpholin-4-yl)-9-(2-oxo-2-pyridin-3-yl-ethyl)-8-trifluoromethyl-6,7,8,9-tetrahydro-pyrimido[1,2-a]-pyrimidin-4-one] | < 10 nM |
| Cc1nocc1CN1c2nc(N3CCOC[C@H]3C)cc(=O)n2CC[C@H]1C(F)(F)F [Example 12, (S)-9-(3-Methyl-isoxazol-4-ylmethyl)-2-((R)-3-methyl-morpholin-4-yl)-8-trifluoromethyl-6,7,8,9-tetrahydro-pyrimido[1,2-a]-pyrimidin-4-one] | < 10 nM |
| C[C@@H]1COCCN1c1cc(=O)n2c(n1)N(Cc1ncco1)CC[C@@H]2C(F)(F)F [Example 13, (R)-2-((R)-3-Methyl-morpholin-4-yl)-9-oxazol-2-ylmethyl-6-trifluoromethyl-6,7,8,9-tetrahydro-pyrimido[1,2-a]-pyrimidin-4-one] | 10 to 100 nM |
| CCOC(=O)CN1c2nc(N3CCOC[C@H]3C)cc(=O)n2CC[C@H]1C(F)(F)F [Example 14, [(S)-8-((R)-3-Methyl-morpholin-4-yl)-6-oxo-2-trifluoromethyl-3,4-dihydro-2H,6H-pyrimido[1,2-a]-pyrimidin-1-yl]acetic acid ethyl ester] | < 10 nM |
| Cc1nc(CN2c3nc(N4CCOC[C@H]4C)c(F)c(=O)n3CC[C@H]2C(F)(F)F)no1 [Example 15, (S)-3-Fluoro-2-((R)-3-methylmorpholin-4-yl)-9-(5-methyl-[1,2,4]oxadiazol-3-yl-methyl)-8-trifluoromethyl-6,7,8,9-tetrahydro-pyrimido[1,2-a]-pyrimidin-4-one] | < 10 nM |
| CCC(=O)CN1c2nc(N3CCOC[C@H]3C)cc(=O)n2CC[C@H]1C(F)(F)F [Example 16, (S)-2-((R)-3-Methyl-morpholin-4-yl)-9-(2-oxobutyl)-8-trifluoromethyl-6,7,8,9-tetrahydro-pyrimido[1,2-a]-pyrimidin-4-one] | < 10 nM |

— patent publication US11739100B2, “2,3-dihydro-1h-imidazo{1,2-a}pyrimidin-5-one and this 1,2,3,4-tetrahydropyrimido{1,2-a}pyrimidin-6-one derivatives comprising a substituted morpholine, preparation thereof and pharmaceutical use thereof” (SANOFI, priority 2012, dated 2023)
